Consider one compound from patent US20130309306A1, “INTRAPULMONARY BENZODIAZEPINE FOR THE TREATMENT AND PREVENTION OF SEIZURES” (priority 2010, published 2013).

This test deals with PTZ-induced seizures. The experiment in a line: PTZ seizure threshold test in mice (intravenous PTZ infusion), Example 1. It is filed as in vivo. As to the method:
Male NIH Swiss mice (22-30 g) were kept in a vivarium under controlled environmental conditions (temperature, 22-26° C.; humidity, 40-50%) with an artificial 12-h light/dark cycle. Wood chips were used in all cages. Experiments were performed during the light phase of the light/dark cycle after a minimum 30-min period of acclimation to the experimental room. The animal facilities were fully accredited by the Association for Assessment and Accreditation of Laboratory Animal Care. All studies were performed under protocols approved by the Animal Care and Use Committee of the University of California, Davis in strict compliance with the Guide for the Care and Use of Laboratory Animals of the National Research Council (National Academy Press, Washington, D.C.).
Intratracheal administration of midazolam was carried out as described by Oka et al. (2006). In brief, mice were briefly anesthetized using isoflurane anesthesia (4% isoflurane). The animals were immediately placed on a surgical board held at a 60° angle. The animal's mouth was kept open by hanging the upper incisors on a hook to facilitate detection of the epiglottis. An operating light was used to illuminate the view of the pharynx after displacement of the tongue with a spatula. A syringe fitted with a blunted 24-gauge/25-mm was pushed against the soft palate to enter the trachea past the vocal cords. When the tracheal cartilage ring is felt, the needle is considered properly placed within the tracheal lumen. The needle was inserted almost to the bottom of the trachea. When the animals began to show signs that the anesthesia was waning, the liquid sample was gently injected at a dose volume of 0.25 ml/kg. After the injection of solution, air (1 ml syringe) was blown inside the lungs to uniformly distribute the drug in the lungs. Following the injection, the needle was gently removed and animal was held vertically for 2 min to facilitate the downward movement of liquid in the lungs. The animal was allowed 10 min to recover fully from the anesthesia as confirmed by normal spontaneous exploratory behavior. Seizure testing then commenced. For each of the seizure tests, we verified that there was no residual effect of the anesthetic on responsiveness.
The thresholds for various behavioral seizure stages induced by the GABA receptor antagonists PTZ and picrotoxin were determined by infusing the convulsant drugs via a 27 gauge-¾ inch “butterfly” needle inserted into the lateral tail vein. The needle was secured to the tail vein by a narrow piece of adhesive tape and the animal was permitted to move freely inside an inverted 2 litre glass beaker with free aeration from the top. PTZ (10 mg/ml) (Akula et al., 2008), and picrotoxin (1 mg/ml) (Chan et al., 2006) was infused at a constant rate of 0.5 ml/min using a Beckton Dickinson (1 ml) syringe mounted on an infusion pump (Model ‘11’ plus syringe pump; Harvard Apparatus, Holliston, Mass., USA). The syringe was connected to the needle by polyethylene tubing. The infusion was stopped at 3 min or at the onset of tonic extension, whichever occurred first. The thresholds to the following endpoints were determined: (i) the first myoclonic jerk; (ii) the onset of generalized clonus with loss of righting reflexes; and (iii) the onset of tonic extension. Latencies were measured from the start of convulsant infusion to the onset of all these three events. The threshold value (mg/kg) for each endpoint was determined according to the following formula: (infusion duration [sec]×infusion rate [ml/min]×convulsant drug concentration [mg/ml]×1000)/(60 [sec]×weight of mouse [g]).
Results are expressed as mean±S.E.M.; the significance of the difference in the responses of treatment groups with respect to control is based on one-way analysis of variance (ANOVA) followed by specific post-hoc comparisons using Tukey's test. Differences were considered statistically significant when the probability of error was less than 0.05 (P<0.05). […]

For `Cc1ncc2n1-c1ccc(Cl)cc1C(c1ccccc1F)=NC2` [Midazolam, midazolam], the “anticonvulsant activity, PTZ i.v. seizure threshold model” value (25 μg/kg and 50 μg/kg intratracheally, 10 minutes before intravenous PTZ (FIG. 5)) is “active as anticonvulsant”. Further, the “dose required for anticonvulsant activity, PTZ i.v. seizure threshold model” value is 0.5 mg/kg (administered intraperitoneally (FIG. 5)) and 0.1 to 0.2 mg/kg (administered intravenously, 10 minutes before intravenous PTZ (FIG. 5)). In addition, the “thresholds for all seizure signs (myoclonic jerk, clonus, tonic extension) vs vehicle” value (intraperitoneal 500, 1000, 2500 and 5000 μg/kg, pretreatment 15 min (FIG. 1A)) is reported as “significant elevation”. Besides, the “thresholds for seizure signs vs vehicle” value (intratracheal 12.5 μg/kg, pretreatment 10 min) is reported as “enhanced the seizure threshold for clonic but ineffective against tonic extensor phases”; the “thresholds for seizure signs vs vehicle” value (intratracheal 25, 50 and 100 μg/kg, pretreatment 10 min (FIG. 1B)) is given as “effective”. For the setting “intratracheal 100 μg/kg”, the “time of maximal effect” value fell in the range of 5 to 15 min. Moreover, the “time course: threshold vs vehicle pretreated animals” value (intratracheal 100 μg/kg, pretreatment 5, 10, 20, 40 and 60 min (FIG. 2)) is on record as “elevation in threshold”.
